Here are results for 79 compounds from the METLIN SMRT retention time set (Domingo-Almenara et al. 2019).

This data set in a line: gradient 5% acetonitrile 3 min, to 50% in 2 min, to 85% in 15 min, held 3 min, 100 µL/min. The settings on record: column: Zorbax Extend-C18 2.1 x 50 mm; eluents: water / acetonitrile, 0.1% formic acid. The method in brief: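 In both positive and negative ionization mode, a quadrupole time-of-flight mass spectrometer coupled to HPLC analyzed pure standards run in mixtures of ~100 molecules. The Zorbax Extend-C18 column (2.1 × 50 mm, 1.8 μm) was operated at 100 μL/min with water and acetonitrile, each containing 0.1% formic acid. The dead volume was 40 μL and the dwell volume 900 μL. Retention time came from adduct peaks that were computationally picked and individually inspected by hand.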
`CC(=O)Nc1cc(-c2nc(-c3ccc4oc(-c5ccccc5)nc4c3)no2)ccc1C` showed an RP-LC retention time of 738 s.
As for `O=C(NCc1csc(-c2cccs2)n1)C1CCN(S(=O)(=O)c2cccs2)CC1`, the RP-LC retention time is 830 s.
In the case of `Cc1ccc(Cl)cc1NC(=O)C(=O)c1cccn1C`, the RP-LC retention time is 878 s.
The same measure for `CC(C)c1nn2c(S(=O)(=O)NC3CCCC3)c(C(C)C)nc2s1`: 1050 s; for `NC(=O)C1CCN(Cc2nc(-c3ccc(N4CCOCC4)nc3)no2)CC1`: 563 s.
For `CCOC(=O)c1cc2ccsc2n1CC(=O)NCCN1CCN(C)CC1`, the RP-LC retention time came out at 600 s.
With `CCOC(=O)c1ccc(NC(=O)C2CCCN(c3ncnc4c3nc3n4CCCCC3)C2)cc1` (centres undefined), the RP-LC retention time was determined as 873 s.
The same measure for `CCc1noc2nc(C)n(CC(=O)NC3CCCc4ccccc43)c(=O)c12` (centres undefined): 867 s; for `Cc1[nH]c(C)c(S(=O)(=O)N2CCC(C(=O)NC3CCCCCCC3)CC2)c1C(=O)N1CCCC1`: 745 s; for `Cc1cccc(-n2c(N3CCCC(C(=O)Nc4ccc(Cl)cc4)C3)nc3ccsc3c2=O)c1` (centres undefined): 1080 s.
Consider `CCc1nn2c(CNS(=O)(=O)c3cc(F)cc(F)c3)c(-c3ccccc3)nc2s1`, for which the RP-LC retention time was determined as 963 s.
The same measure for `O=C(Cc1csc(NC(=O)c2ncccn2)n1)Nc1nc2ccccc2s1`: 670 s.
Consider `O=C(Cn1cccc1-c1nc(-c2ccc3c(c2)OCO3)no1)N1CCN(c2ccccc2)CC1`, for which the RP-LC retention time was 1070 s.
Turning to `O=C(Nc1nccs1)C1CCN(C(=O)C2COc3ccccc3O2)CC1` (centres undefined), the RP-LC retention time came out at 716 s.
In turn, `CCCn1ccc2sc(C)c(C(=O)N3CCCCC3)c2c1=O` came in with an RP-LC retention time of 760 s.
The compound `CCOC(=O)c1c(C)[nH]c(C(=O)N2CCC(CC(=O)NC(C)C)CC2)c1C` came in with an RP-LC retention time of 683 s.
`COc1cccc(CC(=O)N2CCCC2c2cc(C)on2)c1` (centres undefined) showed an RP-LC retention time of 757 s.
Take `CC1=C(c2ccccc2)S(=O)(=O)N=C1N1CCCN(C(=O)c2ccc(C#N)cc2)CC1`: the RP-LC retention time came out at 777 s.
`Cc1ccc(CNC(=O)C2(C)CN(S(C)(=O)=O)CC(=O)N2c2ccccc2F)cc1` (centres undefined) had an RP-LC retention time of 804 s.
For `CCc1cccc(NC(=O)CSc2cc(N3CCN(c4ccccc4OC)CC3)ncn2)c1`, the RP-LC retention time came to 1090 s.
The figure for `O=C(Cn1c(=O)c2cccn2c2ccc(F)cc21)N1CCC(N2CCCCC2)CC1` is 606 s; for `Cn1cc(C(=O)N2CCCC(c3nnc4n3CCN(C3CCCC3)C4)C2)cn1` (centres undefined) it is 553 s; for `CCNc1cc(N2CCC(CCC(=O)NCc3ccc(Cl)cc3)CC2)ncn1` it is 585 s.
In turn, `Cc1ccc(C2=NC3(CCN(C(=O)c4ccc5ccccc5n4)CC3)ON2)cc1` returned an RP-LC retention time of 809 s.
The same measure for `COCCCNC(=O)N1CCN(c2nnc(C)c3c(C)n(-c4ccc(C)cc4)nc23)CC1`: 643 s; for `Clc1cccc(-c2nc3ccccn3c2Nc2ccc3c(c2)OCCO3)c1`: 715 s; for `COc1ccccc1N1CCN(c2ccc3cc(S(=O)(=O)N4CCCC4)ccc3n2)CC1`: 855 s.
The same measure for `CCOC(=O)c1nc(NCc2cccc(Cl)c2)c2ccccc2n1`: 833 s; for `NC(=O)CCCCn1ccc(NC(N)=NCC(F)(F)F)n1`: 617 s; for `CCOCCCNC(=O)C1(C)Cn2c(ccc2-c2ccco2)C(=O)N1c1ccc(OC)cc1` (centres undefined): 791 s.
The figure for `CC1Oc2ccc(-c3csc(NC(=O)CCc4ccccc4)n3)cc2N(C)C1=O` (centres undefined) is 1010 s; for `CN1[C@@H]2CC(OC(=O)[C@H](CO)c3ccccc3)C[C@H]1[C@@H]1O[C@@H]12` (some centres undefined) it is 619 s.
The compound `COc1ccc(OC)c(CNC(=O)C2CCN(c3nnc(-c4ccccc4)o3)CC2)c1` yielded an RP-LC retention time of 797 s.
With `Cc1cc(N(CCO)Cc2ccccc2)n2nc(-c3ccccc3C)nc2n1`, the RP-LC retention time was 786 s.
Turning to `Cc1cc(Cl)ccc1NC(=O)N1C[C@@H]2C[C@H](NS(=O)(=O)c3ccccc3)[C@H]1C2`, the RP-LC retention time stood at 922 s.
`Cc1cc(C(=O)Nc2ccc3c(c2)OCO3)c2c(C)nn(-c3cccc(F)c3)c2n1` showed an RP-LC retention time of 1170 s.
The figure for `CC1CCN(C(=O)c2nc3ccccn3c2-c2ccsc2)CC1` is 711 s; for `COc1ccc(Br)c2c1C(=O)CC2` it is 826 s; for `Cc1cccc(Sc2nccnc2N2CCCC(C(=O)Nc3ccc(Br)cc3)C2)c1` (centres undefined) it is 1290 s.
The figure for `CCc1ccc(NC(=O)N2CCC(n3cnc4ccc(Cl)cc4c3=O)CC2)cc1` is 921 s; for `O=C1NCCc2c1[nH]c1ccccc21` it is 750 s; for `CCOc1ccc(NC(=O)NCC(c2cccnc2)c2cn(CC)c3ccccc23)cc1` (centres undefined) it is 751 s.
For the compound `O=C(CN1CCC2(CC1)N=C(c1ccc(Cl)cc1)C(=O)N2)NCc1ccc2c(c1)OCO2`, the RP-LC retention time was 680 s.
The figure for `COc1cc(CN2C[C@@H]3C(=O)N(Cc4ccc5c(c4)OCO5)C(=O)[C@@H]3C2)cc(OC)c1` is 741 s; for `Cn1cc(S(=O)(=O)N2CCCCC2)cc1C(=O)NC1CCCCC1` it is 953 s; for `CCOc1ccccc1NC(=O)CN1C(=O)CCc2cc(Br)ccc21` it is 1000 s.
Compound `Cc1cccc(CS(=O)(=O)NCCCN2CCN(c3ccccc3)CC2)c1` registered an RP-LC retention time of 588 s.
The same measure for `CCOc1ccc(NC(=O)c2cccc(-n3cnnn3)c2)cc1`: 737 s; for `c1ccc(CC2CCN(Cc3nc(-c4ccc(N5CCOCC5)nc4)no3)CC2)cc1`: 716 s; for `CCCC(=O)Nc1cc2c(cc1S(=O)(=O)c1ccc(F)cc1)n(C)c(=O)n2C`: 767 s.
In the case of `Cc1cc(C)cc(OCc2nc(CCN(C)C(=O)c3cccs3)no2)c1`, the RP-LC retention time worked out at 974 s.
The compound `CCc1nc(-c2csc(S(=O)(=O)N3CCC(C(=O)NC(C)C)CC3)c2)no1` came in with an RP-LC retention time of 812 s.
The figure for `COc1cc(C)c(C)cc1S(=O)(=O)Nc1ccc(Cl)c(N2CCCS2(=O)=O)c1` is 1080 s.
`Cc1c(C(=O)NCC(C)C)cnn1-c1ccc(-c2nc(C(C)C)no2)cn1` registered an RP-LC retention time of 1050 s.
The figure for `Cc1nc(-c2ccc(C(F)(F)F)cc2)ncc1C(=O)NCCc1cccs1` is 1120 s; for `CC1Cc2ccccc2N1C(=O)Cc1cc(-c2ccc(F)cc2)on1` (centres undefined) it is 1000 s.
For the compound `CSc1ccc(NC(=O)N2CCc3c(c(-c4nc(C5CC5)no4)nn3C)C2)cc1`, the RP-LC retention time is 874 s.
Take `Cc1ccn2cc(C(=O)NCc3ccc(OC(C)C)cc3)nc2c1`: the RP-LC retention time was 713 s.
As to `COc1ccc(C)cc1NC(=O)C1CCN(S(C)(=O)=O)c2cc(Cl)ccc2O1` (centres undefined), the RP-LC retention time came out at 1100 s.
The same measure for `Cc1ccc(NC(=O)c2cc(C(C)(C)C)n3nccc3n2)cc1`: 1320 s; for `CC(=O)N1CCC2(CC1)OC(=O)C(C)=C2C(=O)N1CCc2ccccc2C1`: 692 s; for `COc1ccccc1NC(=O)c1cnc2c(c1)c(=O)n(C)c(=O)n2-c1ccc(C)cc1`: 944 s.
Take `COCCc1noc(-c2cnc3nc(C)ccc3c2Nc2ccc(F)cc2)n1`: the RP-LC retention time was determined as 688 s.
The same measure for `O=c1c2cc(-c3ccc(F)cc3)nn2ccn1Cc1ccc(Cl)cc1`: 1090 s; for `CC(C)NC(=O)CSc1nnc(CNC(=O)c2ccc(S(=O)(=O)N(C)C)cc2)o1`: 625 s; for `CCC(CC)NCCOC(=O)c1ccc([N+](=O)[O-])cc1`: 705 s.
The same measure for `CC(C)NC(=O)c1ccc(OCC2CCN(C(=O)c3ccc(F)c(Cl)c3)CC2)cc1`: 922 s; for `COc1ccc(Br)cc1CNC(=O)CN1C(=O)CSc2ncccc21`: 756 s.
The same measure for `O=C(Nc1ccc2c(c1)OCCO2)N1CCC(Cc2nc(-c3cccnc3)n[nH]2)C1` (centres undefined): 592 s; for `COc1ccc(OC)c(CNC(=O)c2cn3c(n2)CCCC3)c1`: 587 s; for `C=CCN1C(=O)COc2ccc(-c3nc(NC(=O)c4cc(OC)c(OC)c(OC)c4)sc3C)cc21`: 1050 s.
Regarding `CCCCN(CC)C(=O)C1CCN(S(=O)(=O)c2ccc3c(c2)NC(=O)CO3)CC1`, the RP-LC retention time was 784 s.
For the compound `Cc1nc(Nc2ccccc2)sc1C(=O)NC1CCCC1`, the RP-LC retention time worked out at 869 s.
The figure for `COc1cccc(CN2CC(c3nc(CCOCc4ccccc4)no3)C2)c1` is 708 s; for `CCN(CC)CCOc1ccc(Nc2ncc3cc(-c4c(Cl)cccc4Cl)c(=O)n(C)c3n2)cc1` it is 783 s.
Turning to `CCCNC(=O)C1CCN(c2ccc(SCC(=O)NCc3ccc4c(c3)OCO4)nn2)CC1`, the RP-LC retention time amounted to 606 s.
The figure for `CCc1ccccc1NC(=O)Cn1nc2cc(C)nc(Nc3ccc(F)cc3)n2c1=O` is 1040 s; for `CCOC(=O)Cc1ccc(NC(=O)N2CCc3nc[nH]c3C2)cc1` it is 588 s.
The figure for `Cc1ccc(-c2nnc(-c3ccccc3)o2)cc1S(=O)(=O)N1CCCC1` is 1020 s.
